# In publication PMC3816671, “Cell Penetrating Peptoids (CPPos): Synthesis of a Small Combinatorial Library by Using IRORI MiniKans” (Pharmaceuticals, 2012):
# Key:
# HeLa cells = assay: Cellular uptake and intracellular distribution of rhodamine B-labeled peptoids by live-cell confocal imaging; format: cell-based, human; settings: 1 × 10^4 HeLa wt cells, 1 µM peptoid, 24 h, 37 °C, confocal fluorescence imaging, co-staining Hoechst 33342 and Mitotracker Green
# Protocol: All procedures with mammalian cells were carried out under sterile conditions. 1 × 10^4 HeLa (human cervix carcinoma) cells were plated into each well of a 8-well µslide from IBIDI (Ibitreat, Martinsried, Germany) and cultured in 200 µL Dulbecco’s modified Eagle’s medium, high glucose, (DMEM, Invitrogen, Karlsruhe, Germany) supplemented with 10% fetal calf serum (FCS, PAA) and1 U/mL penicillin/streptomycin at 37 °C, 5% CO2.
# The purified peptoids were dissolved in bidistilled water to yield a 2 mM stock solution and were further diluted with 10% DMEM to yield the respective incubation media. The cells were cultured as described above were incubated with the different peptoids at final concentrations of 1–10 µM. Cellular uptake of the peptoids was measured by live-cell imaging after 1 and 24 h as fixation would alter the intracellular distribution as described for other polycationic species.
# Visualization of the peptoids was achieved by confocal microscopy using a Leica TCS-SP5 II, equipped with a DMI6000 microscope. The peptoids were excited at 561 nm using a DPSS laser. […] Fluorescence emission was measured at 417–468 nm for the detection of the nuclei, at 499–552 nm for the detection of the mitochondria, and 593–696 nm for the detection of the rhodamine B labeled peptoids. […]
# [1] = tested on: mitochondria of HeLa cells; assay: Co-localization with the mitochondrial marker Mitotracker Green (Pearson's correlation of fluorescence profiles); format: cell-based, human; settings: live-cell confocal fluorescence imaging, co-staining with 100 nM Mitotracker Green, 37 °C
# Protocol: HeLa cells were treated with 1 and 10 µM of the corresponding peptoids for 1 and 24 h. […] However, for the better visualization of the organellar accumulation the incubation period was prolonged to 24 h. Co-localization experiments were performed by co-staining of the mitochondria with the mitochondrial marker Mitotracker Green^TM (Figure 5 and Figure 6).
# By colocalizing the peptides with the mitochondrial marker Mitotracker Green^TM Pearson’s correlation coefficients (Rr) of the corresponding fluorescence profiles could be calculated reflecting mitochondrial specificity.
# All procedures with mammalian cells were carried out under sterile conditions. […]
# The purified peptoids were dissolved in bidistilled water to yield a 2 mM stock solution and were further diluted with 10% DMEM to yield the respective incubation media. […] Cellular uptake of the peptoids was measured by live-cell imaging after 1 and 24 h as fixation would alter the intracellular distribution as described for other polycationic species.
# Visualization of the peptoids was achieved by confocal microscopy using a Leica TCS-SP5 II, equipped with a DMI6000 microscope. […] Fluorescence emission was measured at 417–468 nm for the detection of the nuclei, at 499–552 nm for the detection of the mitochondria, and 593–696 nm for the detection of the rhodamine B labeled peptoids. […]
substance,measurement,setting,value
RhoB-Npmb-Nlys3-NH2 [compound 11],Intracellular localization,HeLa cells,mitochondrial localization
same,"Pearson's correlation coefficient (Rr) of the fluorescence profiles of peptoid and Mitotracker Green, reflecting mitochondrial specificity",[1],+0.68
